From patent publication US20050277600A1, “Compositions and methods of use of dimer digallates” (Mars, Incroporated, priority 2004, published 2005)

Assays:
[1] = system: rabbit aortic rings; experiment: Relaxation of norepinephrine pre-constricted rabbit aortic rings ex vivo
Experimental: Several compounds were investigated for their effect on nitric oxide (NO) production and vasorelaxation using serum-free human umbilical vein endothelial cell (HUVEC) culture system in vitro and rabbit aortic ring model ex vivo, respectively. NO production by endothelial cells and relaxation of pre-constricted aortic rings are two main markers for evaluating vascular effects of test compounds. Effect of different procyanidins on endothelium-dependent relaxation was tested in an ex vivo experiment performed as previously described by Karim et al., J. Nutrl Suppl., 130 (8S): […]-[…] (2000), the relevant portions of which are hereby incorporated herein by reference. The advantage of using this method is that it assesses functional vascular end points. […] In summary, rabbit aortic rings were obtained from male New Zealand White rabbits. Following isolation, the rings were mounted in oxygenated Kreb's buffer, and pre-constricted with norepinephrine (NE) (10^-6 M). […] A positive control acetylcholine (10^-9 to 10^-4 M) and a negative control L-NAME were included in the experiment. Use of L-NAME, which is a NO synthase (NOS) inhibitor, allows for differentiating between endothelium dependent and endothelium independent relaxation events. […] The relaxation response was measured as a function of the decrease in the tension (g) exerted by the aortic rings over time […]. Data obtained were expressed as a percent relaxation of the norepinephrine (NE) constricted rings. The same statistical approach as described above was used. Dose response curves were obtained by plotting the average percent relaxation (+/-SE) against the concentrations used.

[2] = system: human umbilical vein endothelial cell (HUVEC) NO production; experiment: HUVEC NO production (NOx in cell culture medium, chemiluminescence); format: cell-based; conditions: for HUVEC Cells NOx, 24 hr / HUVEC Cells NOx, 5 d / HUVEC Cells NOx, 2 hr: Table 2 summary
Experimental: Several compounds were investigated for their effect on nitric oxide (NO) production and vasorelaxation using serum-free human umbilical vein endothelial cell (HUVEC) culture system in vitro and rabbit aortic ring model ex vivo, respectively. NO production by endothelial cells and relaxation of pre-constricted aortic rings are two main markers for evaluating vascular effects of test compounds.
HUVECs obtained from a single donor were cultured in serum free, low protein (0.5 g/l), antibiotic-free cell culture medium supplemented with essential growth factors, nutrients and minerals. […] The cell culture medium was substituted with apo-transferrin, superoxide dismutase, and catalase to exclude secondary effects of test compounds involving their auto-oxidation mediated hydrogen peroxide formation.
NO production was evaluated by measuring the total amount of all major nitric oxide end products (NOx, including nitrate, nitrite, nitrosothiols) present in the cell culture medium. […] The amount of NO released from the culture medium was subsequently evaluated by measuring the chemiluminescence emitted during the stoichiometrical reaction between ozone and NO using a NO Analyzer (Sievers Instruments, Inc. Boulder, Colo.).
The data presented herein were obtained from three experiments and were expressed as the concentration of NO present (in μmol/l) (as NOx) in the cell culture medium+/−standard deviation (SD). The data were corrected for the NOx intrinsically present in the fully supplemented cell culture medium and normalized with respect to the volume of media from which the sample was drawn. Data were analyzed using Student's t-test with a 95% level of confidence. P values equal to or less than 0.05 were defined as statistically significant.
For the acute effect test, HUVECs were incubated with the test compounds for 2 hours at concentrations of 100 nM, 1 μM, and 10 μM at 37° C. and 5% CO2. […] (FIG. 1)
For the chronic effect test, HUVECs were incubated with 5 subsequent doses of test compounds, each for 24 hours. After each 24 hour treatment, culture medium was replaced.
For the acute effect test, HUVECs were incubated with a single dose of the test compounds for 24 hours at concentrations of 100 nM, 1 μM, and 10 μM at 37° C. and 5% CO2.

[3] = system: HUVEC; experiment: HUVEC-mediated MTT reduction (toxic effects); conditions: for MTT reduction / cell-mediated MTT reduction: Experiment 2, chronic, 5 x 24 hours; for MTT reduction: 1 μM or 2 μM for EGC; for cell-mediated MTT reduction: 10 μM (20 μM for the Epicatechin gallates); for cell-mediated reduction of MTT: Experiment 2, single dose, 24 hours, 1 μM
Experimental: Cell counts and total protein were used to assess intra-assay variation. Potential toxic effects of tested compounds were also monitored (MTT reduction was measured).

[4] = system: human umbilical vein endothelial cell (HUVEC) NO production; experiment: HUVEC NO production (NOx in cell culture medium, chemiluminescence); format: cell-based; conditions: Experiment 1, 24 h after single dose, 1 mM (so in the source)
[5] = Experiment 1, 24 h after single dose, 10 μM
[6] = Experiment 1, acute, 2 hours incubation, 10 μM
[7] = Experiment 1, chronic, 5 subsequent 24 hour doses
[8] = Experiment 2, single dose, 24 hours, 1 μM
[9] = Experiment 2, single dose, 24 hours, 10 μM

| SMILES | HUVEC Cells NOx, 24 hr [2] | HUVEC Cells NOx, 5 d [2] | MTT reduction [3] | cell-mediated MTT reduction [3] | relaxation response, percent relaxation of NE constricted rings ([1]; Experiment 1, 10^−4 M) | relaxation response, percent relaxation of NE constricted rings ([1]; Experiment 1, 10^−5 M) | NO production [2, 5] | modulation of NO production [2, 6] | NO production [2, 8] | modulation of NO production [2, 9] | HUVEC Cells NOx, 2 hr [2] | NO production [4] | cell-mediated reduction of MTT [3] | further results |
| --- | --- | --- | --- | --- | --- | --- | --- | --- | --- | --- | --- | --- | --- | --- |
| O=C(O[C@H]1[C@H](c2c(O)cc(O)c3c2O[C@H](c2ccc(O)c(O)c2)[C@H](OC(=O)c2cc(O)c(O)c(O)c2)C3)c2c(O)cc(O)cc2O[C@@H]1c1ccc(O)c(O)c1)c1cc(O)c(O)c(O)c1 [C-(4α→8)-EC digallate, (+)-Catechin-(4α,8)-(−)-Epicatechin Digallate] | no effect | No significant NOx increase; | decline in MTT reduction | significant decline of cell-mediated MTT reduction |  |  |  |  |  |  |  |  |  | relaxation response, percent relaxation of NE constricted rings ([1]; Experiment 2, 10^−4 M): 40.7+/−9.2%; Max Relaxation ([1]; Experiment 3, 100 μM): 41%; Aortic Ring Effective Conc, ([1]; Table 1 summary): 100 µM |
| O=C(O[C@@H]1[C@@H](c2c(O)cc(O)c3c2O[C@H](c2ccc(O)c(O)c2)[C@H](OC(=O)c2cc(O)c(O)c(O)c2)C3)c2c(O)cc(O)cc2O[C@@H]1c1ccc(O)c(O)c1)c1cc(O)c(O)c(O)c1 [EC-(4β→8)-EC digallate, (−)-Epicatechin-(4β,8)-(−)-Epicatechin Digallate] | 1 and 10 uM, sign. NOx inc. | No significant NOx increase; | decline in MTT reduction | significant decline of cell-mediated MTT reduction | 73.55+/−7.08% | 44.6+/−16.6% | increased NO production | statically significant ability to modulate NO production | statistically significant increases in NO production | statistically significant ability to modulate NO production | 10 uM, sign. NOx | increased NO production | no effect on cell-mediated reduction of MTT | Max Relaxation ([1]; Experiment 3, 10 μM and 100 μM): 74%; NO production [2, 7]: attenuation of NO production; decline in MTT reduction [3, 7]: 55% |
| Oc1cc(O)c2c(c1)O[C@H](c1ccc(O)c(O)c1)[C@H](O)[C@H]2c1c(O)cc(O)c2c1O[C@H](c1ccc(O)c(O)c1)[C@@H](O)C2 [EC-(4β→8)-C, (−)-Epicatechin-(4β,8)-(+)-Catechin] | 1 uM and 10 uM, sign. Incr. in | 10 uM, significant NOx |  |  | 58.36+/−11.35% | 42.7+/−11.81% | increased NO production | statically significant ability to modulate NO production | statistically significant increases in NO production | statistically significant ability to modulate NO production | 10 uM, sign. NOx | increased NO production | no effect on cell-mediated reduction of MTT | HUVEC NO production ([2]; Experiment 2, chronic, 5 subsequent 24 hour doses): increase in NO production which was significantly lower as compared to single dose treatment; NO modulating effect after re-purification ([2]; re-purified compound (first lot contaminated with A1 dimer)): no longer exhibited the NO modulating effect |
